Measurements taken from patent US9357773B2, “Herbicidal agents containing aclonifen” (BAYER CROPSCIENCE AKTIENGESELLSCHAFT, priority 2012, dated 2016).

What was measured:
[1] = tested on: Lolium spp. resistant to HRAC group A; test: Greenhouse trial, post-emergence action against resistant ryegrass biotype (HRAC group A); format: in vivo; settings: post-emergence (PO, BBCH 11), about 3 weeks after application
Protocol: (§1) In the standard design of the test, seeds of various broad-leaved weed and weed grass biotypes (origins) were sown in a 8-13 cm diameter pot filled with natural soil of a standard field soil (loamy silt; non-sterile) and covered with a covering soil layer of about 1 cm. The pots were then cultivated in a greenhouse (12-16 h light, temperature day 20-22° C., night 15-18° C.) until the time of application. The pots were treated on a laboratory track sprayer with spray liquors comprising the compositions according to the invention, mixtures of the prior art or components used individually. Application of the active compounds or active compound combinations formulated as WG, WP, EC or otherwise was carried out at the appropriate growth stages of the plants. The amount of water used for spray application was 100-600 l/ha. After the treatment, the plants were returned to the greenhouses.
(§2) About 3 weeks after the application, the soil action or/and foliar action was assessed visually according to a scale of 0-100% in comparison to an untreated comparative group: 0%=no noticable effect compared to the untreated comparative group; 100%=full effect compared to the untreated comparative group.
(§3) (Notes: the term “seeds” also includes vegetative propagation forms such as, for example, rhizome pieces; abbreviations used: h light=hours of illumination, g of AS/ha=grams of active substance per hectare, l/ha=liter per hectare, S=sensitive, R=resistant) • 1. Pre-emergence action against weeds: seeds of various broad-leaved weed and weed grass biotypes (origins) were sown in a 8-13 cm diameter pot filled with natural soil of a standard field soil (loamy silt; non-sterile) and covered with a covering soil layer of about 1 cm. The pots were then cultivated in a greenhouse (12-16 h light, temperature day 20-22° C., night 15-18° C.) until the time of application. […]

[2] = tested on: Lolium spp. resistant to HRAC group B; test: Greenhouse trial, post-emergence action against resistant ryegrass biotype (HRAC group B); format: in vivo; settings: post-emergence (PO, BBCH 11), about 3 weeks after application
Protocol: as §1, §2, §3

Nc1c([N+](=O)[O-])ccc(Oc2ccccc2)c1Cl [(A) aclonifen, 2-chloro-6-nitro-3-phenoxybenzenamine]
effect (visual scale 0-100% vs untreated) ([1]; 225 g of AS/ha): 25% | effect (visual scale 0-100% vs untreated) ([2]; 225 g of AS/ha): 50%

O=C(Nc1ccc(F)cc1)c1cccc(Oc2cccc(C(F)(F)F)c2)n1 [(C) picolinafen, N-(4-fluorophenyl)-6-[3-(trifluoromethyl)phenoxy]-2-pyridinecarboxamide]
effect (visual scale 0-100% vs untreated) ([1]; 25 g of AS/ha): 10% | effect (visual scale 0-100% vs untreated) ([2]; 25 g of AS/ha): 5%

Cn1nc(C(F)(F)F)c(CS(=O)(=O)C2=NOC(C)(C)C2)c1OC(F)F [(B) pyroxasulfone, 3-[[[5-(difluoromethoxy)-1-methyl-3-(trifluoromethyl)-1H-pyrazol-4-yl]methyl]sulfonyl]-4,5-dihydro-5,5-dimethylisoxazole]
effect (visual scale 0-100% vs untreated) ([1]; 13 g of AS/ha): 45% | effect (visual scale 0-100% vs untreated) ([2]; 13 g of AS/ha): 70%
